Patent publication US8563567B2, “Substituted heterocyclic compounds” (ArQule, Inc., priority 2009, dated 2013)

Assays:
[1] = target: Abl (T315I) (Homo sapiens, UniProt P00519, T315I); experiment: Abl kinase activity assay (fluorescent ELISA, AblTide substrate); type: biochemical
Experimental: The disclosed compounds were assayed for their ability to inhibit the activity of ABL kinase. Nunc Maxisorb plates are coated with streptavidin by overnight incubation with 100 μL per well of 1 μg/mL streptavidin in DPBS. Prior to the start of the experiment, the plates are washed with TBST (3×200 μL) and blocked for at least 3 hours by adding 150 μL of 5% BSA/TBST. The plates are washed with TBST (3×200 μL/well) and left dry immediately before the capture step.
The test articles and controls (Gleevec) are prepared using the following assay buffer @ 10× desired final concentration (50 mM Tris pH 7.0, 0.02 mg/ml BSA, 10 mM MgCl2, 0.1 mM Na3VO4, 1 mM EGTA, 0.01% NP-40, 1 mM DTT in 10% glycerol/water). In a reaction plate are added rapidly 5 μL test article (or control) and 30 μL ABL or ABL T315I (0.089 nM final concentration, in the above buffer). The plate is incubated for 20 minutes. To the reaction plate is added ATP (100 μM final concentration) and AblTide (128 nM final concentration) in a volume of 15 μL. The plate is incubated at room temperature for one hour.
From the reaction plate, 40 μL is transferred to the streptavidin coated plate. The capture plate is incubated at room temperature for 30 minutes then washed 3× with TBST. To the capture plate is added 100 μL/well of Cell Signaling anti-phospho tyrosine at a dilution of 1:3000 in 2% BSA/TBST. The plate is incubated for two hours at room temperature then washed 3× with TBST. To the capture plate is added 100 μL/well of Alkaline Phosphatase Tagged Goat anti Mouse Antibody at a dilution of 1:4000 in 2% BSA/TBST. The plate is incubated for one hour at room temperature then washed 3× with TBST.
The fluorescent readout was initiated by the addition of 100 μL/well of Attophos reagent (6 mg/10 mL). The reading was done on the Perkin Elmer Envision system.

[2] = target: T1, FGFR2 (N549H) (Homo sapiens, UniProt P21802, N549H); experiment: FGFR2 kinase activity assay (fluorescent ELISA); type: biochemical
T1 construct: purchased Millipore 14-742
Experimental: The enzymatic assays described herein are conducted according to the following procedures from commercially available reagents. In one, non limiting, example, a fluorescent ELISA assay is used to identify and characterize inhibitors of FGFR2 kinase as described herein. This heterogeneous assay utilizes a biotinylated peptide with a tyrosine motif as a substrate and an anti-phospho-tyrosine antibody to measure phosphorylation of the substrate. The reaction is initiated by adding the test compound, 37 μM Pyk2 substrate (Midwest Biotech, Cat. # MBT2383), 12.5 μM ATP (Roche, Cat. #11 140 965 001) and 0.5 μM FGFR2 enzyme (Millipore, Cat. #14-742) sequentially to a non-binding polypropylene V-well plate. All reagents are in an assay buffer consisting of: 50 mM Tris-HCL, 0.02 mg/ml BSA, 10 mM MgCl2, 0.1 mM Na3VO4, 1 mM EGTA, 75 μM ATP, 0.01% NP-40, 2 mM DTT and 10% glycerol. The reaction is incubated for 60 minutes. As the reaction proceeds, FGFR2 phosphorylates tyrosines in the peptide. The reaction mixture is then moved to a blocked streptavidin-coated Nunc Maxisorb plate (coated with 100 ng streptavidin from Pierce (Cat. #15-124) per well), allowing for the capture of the biotinylated peptide. Peptides are captured for 30 minutes at room temperature, the phosphorylation of peptides continues during this phase. The reaction is stopped by washing the streptavidin-coated plate 6 times with TBST. Phosphorylated peptide is detected by adding anti-phospho-tyrosine antibody (Cell Signaling, Cat. #9411, diluted 1:3000) to the streptavidin-coated plate. Unbound anti-phospho-tyrosine antibody is removed by washing the streptavidin-coated plate 6 times with TBST. Secondary detection is performed using alkaline phosphatase tagged goat anti-mouse antibody (Pierce, Cat. #31320, diluted 1:4000) for one hour. Unbound secondary antibody is removed by washing the streptavidin-coated plate 6 times with TBST. The fluorescent readout is initiated by adding to the streptavidin-coated plate Promega Attophos substrate (Promega, Cat. # S1000, dilution=6 mg/10 ml), which, when dephosphorylated by alkaline phosphatase, emits a fluorescent signal of 595 nm in wavelength when excited by a signal of 400 nm in wavelength. The reading of the 595 nm signal is done on the Perkin Elmer Envision system. Compounds which prevent FGFR2 from phosphorylating the peptide result in a lower fluorescent signal. The 595 nm fluorescent signal is directly proportional to the activity of FGFR2. Thus, the inhibition of FGFR2 by compounds is monitored by the decrease in the 595 nm fluorescent signal.

[3] = test system: MDA-MB-231; experiment: MTS assay, MDA-MB-231; type: cell-based; details: Homo sapiens, MDA-MB-231, 72 h
Experimental: (§1) Cells were maintained at 37° C., 5% CO2 in RPMI media supplemented with 1% fetal bovine serum, penicillin/streptomycin and fungizone (Invitrogen). Cells were seeded into 96-well tissue culture plates at 3000 per well and cultured at 37° C. for 18 h. Test compounds were dissolved and diluted to 300× in DMSO then diluted 1:40 in DMEM. Cells were incubated with test compounds for 72 hours followed by incubation with tetrazolium compound (3-(4,5-dimethylthiazol-2-yl)-5-(3-carboxymethoxyphenyl)-2-(4-sulfophenyl)-2H-tetrazolium, inner salt; MTS) and the electron coupling reagent, phenazine methosulfate (PMS) for 4 hours. […] The ability of compounds to inhibit cell growth in this assay is correlated with the reduction of dehydrogenase enzyme activity found in metabolically active cells. The measurement of the absorbance of the formazan was assessed using an ENVISION™ (Perkin Elmer) microplate reader at 492 nm. The calculated IC50 value is the concentration of the test compound that causes a 50% decrease in the absorbance.

[4] = test system: DLD-1; experiment: MTS assay, DLD-1; type: cell-based; details: Homo sapiens, DLD-1, 72 h
Experimental: as §1

T1 sequence (P21802 22-821 N549H): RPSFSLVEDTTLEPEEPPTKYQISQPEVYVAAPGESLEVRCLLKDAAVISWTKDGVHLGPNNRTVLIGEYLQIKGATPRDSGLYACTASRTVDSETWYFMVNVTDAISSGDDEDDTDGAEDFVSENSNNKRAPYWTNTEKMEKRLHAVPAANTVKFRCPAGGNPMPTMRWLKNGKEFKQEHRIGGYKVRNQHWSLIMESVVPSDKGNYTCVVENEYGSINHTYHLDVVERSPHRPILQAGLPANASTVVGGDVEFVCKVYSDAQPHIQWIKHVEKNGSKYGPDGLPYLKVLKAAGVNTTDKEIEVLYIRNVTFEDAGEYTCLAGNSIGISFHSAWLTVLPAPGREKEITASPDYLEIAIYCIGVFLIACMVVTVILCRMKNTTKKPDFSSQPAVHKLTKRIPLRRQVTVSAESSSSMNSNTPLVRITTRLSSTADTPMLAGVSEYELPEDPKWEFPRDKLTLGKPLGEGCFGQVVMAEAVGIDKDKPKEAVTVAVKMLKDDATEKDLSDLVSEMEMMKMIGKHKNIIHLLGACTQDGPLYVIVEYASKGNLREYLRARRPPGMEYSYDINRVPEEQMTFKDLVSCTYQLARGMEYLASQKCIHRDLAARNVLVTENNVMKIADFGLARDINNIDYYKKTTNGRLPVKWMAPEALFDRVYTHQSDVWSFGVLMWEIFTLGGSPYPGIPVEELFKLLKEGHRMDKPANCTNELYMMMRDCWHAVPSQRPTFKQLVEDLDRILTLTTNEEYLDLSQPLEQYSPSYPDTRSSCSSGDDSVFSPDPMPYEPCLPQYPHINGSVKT

Compound	inhibition at 10 µM [1] [%]	inhibition at 30 µM [2] [%]	inhibition at 10 µM [3] [%]	inhibition at 10 µM [4] [%]
O=c1[nH][nH]c(-c2cn3c4c(cccc24)CCC3)c1-c1c[nH]c2ccccc12 [Compound 4, 5-(5,6-dihydro-4H-pyrrolo[3,2,1-ij]quinolin-1-yl)-4-(1H-indol-3-yl)-1,2-dihydro-3H-pyrazol-3-one]	63	96		
O=c1[nH][nH]c(-c2ccccc2)c1-c1cn2c3c(cccc13)CCC2 [Compound 10, 4-(5,6-dihydro-4H-pyrrolo[3,2,1-ij]quinolin-1-yl)-5-phenyl-1,2-dihydro-3H-pyrazol-3-one]	25		37	46
O=c1[nH][nH]c(-c2ccc(Cl)cc2)c1-c1cn2c3c(cccc13)CCC2 [Compound 11, 5-(4-chlorophenyl)-4-(5,6-dihydro-4H-pyrrolo[3,2,1-ij]quinolin-1-yl)-1,2-dihydro-3H-pyrazol-3-one]	13		97	97
O=c1[nH][nH]c(-c2cc3ccccc3s2)c1-c1cn2c3c(cccc13)CCC2 [Compound 12, 5-(1-benzothien-2-yl)-4-(5,6-dihydro-4H-pyrrolo[3,2,1-ij]quinolin-1-yl)-1,2-dihydro-3H-pyrazol-3-one]	53		90	87
CC(C)(C)Cc1[nH][nH]c(=O)c1-c1cn2c3c(cccc13)CCC2 [Compound 14, 4-(5,6-dihydro-4H-pyrrolo[3,2,1-ij]quinolin-1-yl)-5-(2,2-dimethylpropyl)-1,2-dihydro-3H-pyrazol-3-one]	8		72	57
O=c1[nH][nH]c(-c2ccccc2Cl)c1-c1cn2c3c(cccc13)CCC2 [Compound 15, 5-(2-chlorophenyl)-4-(5,6-dihydro-4H-pyrrolo[3,2,1-ij]quinolin-1-yl)-1,2-dihydro-3H-pyrazol-3-one]	20	33		
Cc1ccc(-c2[nH][nH]c(=O)c2-c2cn3c4c(cccc24)CCC3)cc1 [Compound 16, 4-(5,6-dihydro-4H-pyrrolo[3,2,1-ij]quinolin-1-yl)-5-(4-methylphenyl)-1,2-dihydro-3H-pyrazol-3-one]	83		63	78
O=c1[nH][nH]c(-c2ccc(Cl)cc2Cl)c1-c1cn2c3c(cccc13)CCC2 [Compound 17, 5-(2,4-dichlorophenyl)-4-(5,6-dihydro-4H-pyrrolo[3,2,1-ij]quinolin-1-yl)-1,2-dihydro-3H-pyrazol-3-one]	81	48		40
COc1ccc(-c2[nH][nH]c(=O)c2-c2cn3c4c(cccc24)CCC3)cc1 [Compound 18, 4-(5,6-dihydro-4H-pyrrolo[3,2,1-ij]quinolin-1-yl)-5-(4-methoxyphenyl)-1,2-dihydro-3H-pyrazol-3-one]	9		59	72
O=c1[nH][nH]c(C2CCCC2)c1-c1cn2c3c(cccc13)CCC2 [Compound 19, 5-cyclopentyl-4-(5,6-dihydro-4H-pyrrolo[3,2,1-ij]quinolin-1-yl)-1,2-dihydro-3H-pyrazol-3-one]	77			
O=c1[nH][nH]c(-c2ccccc2Br)c1-c1cn2c3c(cccc13)CCC2 [Compound 20, 5-(2-bromophenyl)-4-(5,6-dihydro-4H-pyrrolo[3,2,1-ij]quinolin-1-yl)-1,2-dihydro-3H-pyrazol-3-one]	87	45		
O=c1[nH][nH]c(-c2cccc(F)c2)c1-c1cn2c3c(cccc13)CCC2 [Compound 21, 4-(5,6-dihydro-4H-pyrrolo[3,2,1-ij]quinolin-1-yl)-5-(3-fluorophenyl)-1,2-dihydro-3H-pyrazol-3-one]	79	75		
CCOc1ccc2ccccc2c1-c1[nH][nH]c(=O)c1-c1cn2c3c(cccc13)CCC2 [Compound 22, 4-(5,6-dihydro-4H-pyrrolo[3,2,1-ij]quinolin-1-yl)-5-(2-ethoxy-1-naphthyl)-1,2-dihydro-3H-pyrazol-3-one]	11	41		
CC(C)c1[nH][nH]c(=O)c1-c1cn2c3c(cccc13)CCC2 [Compound 23, 4-(5,6-dihydro-4H-pyrrolo[3,2,1-ij]quinolin-1-yl)-5-isopropyl-1,2-dihydro-3H-pyrazol-3-one]	8			
O=C(Nc1ccccc1OC(F)F)N1CCC(CNc2nccc(-c3cn4c5c(cccc35)CCC4)n2)CC1 [Compound 50, N-(2-(difluoromethoxy)phenyl)-4-((4-(5,6-dihydro-4H-pyrrolo[3,2,1-ij]quinolin-1-yl)pyrimidin-2-ylamino)methyl)piperidine-1-carboxamide]		55	53	55
CC(=O)c1ccccc1NC(=O)N1CCC(CNc2nccc(-c3cn4c5c(cccc35)CCC4)n2)CC1 [Compound 51, N-(2-acetylphenyl)-4-((4-(5,6-dihydro-4H-pyrrolo[3,2,1-ij]quinolin-1-yl)pyrimidin-2-ylamino)methyl)piperidine-1-carboxamide]		52	72	97
COc1ccc(NC(=O)N2CCC(CNc3nccc(-c4cn5c6c(cccc46)CCC5)n3)CC2)c(OC)c1 [Compound 53, 4-((4-(5,6-dihydro-4H-pyrrolo[3,2,1-ij]quinolin-1-yl)pyrimidin-2-ylamino)methyl)-N-(2,4-dimethoxyphenyl)piperidine-1-carboxamide]		48	95	98
COc1ccccc1C(=O)N1CCC(CNc2nccc(-c3cn4c5c(cccc35)CCC4)n2)CC1 [Compound 54, (4-((4-(5,6-dihydro-4H-pyrrolo[3,2,1-ij]quinolin-1-yl)pyrimidin-2-ylamino)methyl)piperidin-1-yl)(2-methoxyphenyl)methanone]		46	37	95
